Bladder capacity, bladder pressure and EC50 data for 44 molecules are collected here from US8501786B2, “Hydroxymethyl pyrrolidines as beta 3 adrenergic receptor agonists” (Merck Sharp & Dohme Corp., priority 2009, dated 2013).

Where a name gives a salt, the structure may show the parent alone.

T2 sequence (P13945 whole entry): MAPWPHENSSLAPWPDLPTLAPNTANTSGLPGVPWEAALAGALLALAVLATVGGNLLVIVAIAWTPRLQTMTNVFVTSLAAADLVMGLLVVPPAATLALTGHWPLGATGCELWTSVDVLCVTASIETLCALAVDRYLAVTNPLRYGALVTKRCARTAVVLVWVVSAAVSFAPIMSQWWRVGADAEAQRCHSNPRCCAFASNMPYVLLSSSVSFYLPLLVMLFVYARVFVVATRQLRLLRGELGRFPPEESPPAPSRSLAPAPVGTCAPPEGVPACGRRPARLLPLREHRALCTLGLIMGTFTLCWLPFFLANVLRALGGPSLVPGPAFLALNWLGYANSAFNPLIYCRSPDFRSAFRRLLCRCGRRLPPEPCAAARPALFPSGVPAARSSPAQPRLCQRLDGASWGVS

For the first experiment, the target named is T1, β3AR (Rattus norvegicus, UniProt P26255).
T1 construct: Following intravenous administration to rats; host or cells: living rats (bladder, in vivo)
T1 sequence (P26255 whole entry): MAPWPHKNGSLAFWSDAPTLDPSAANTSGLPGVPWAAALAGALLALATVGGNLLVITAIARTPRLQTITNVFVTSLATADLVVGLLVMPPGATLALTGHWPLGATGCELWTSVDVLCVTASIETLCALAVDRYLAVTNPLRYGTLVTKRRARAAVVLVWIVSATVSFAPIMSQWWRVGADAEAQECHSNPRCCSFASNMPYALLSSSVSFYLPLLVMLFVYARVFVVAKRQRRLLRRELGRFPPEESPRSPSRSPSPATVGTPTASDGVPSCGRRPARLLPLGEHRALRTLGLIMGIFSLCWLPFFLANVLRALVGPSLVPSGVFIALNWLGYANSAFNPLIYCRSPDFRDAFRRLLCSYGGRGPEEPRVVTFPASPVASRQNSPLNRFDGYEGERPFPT
Experiment: not given
The following applies: rats, intravenous administration, cystometric studies; cited from earlier work.
Consider `C[C@H](Cc1ccc2c(c1)OC(C(=O)[O-])(C(=O)[O-])O2)NC[C@H](O)c1cccc(Cl)c1.[Na+].[Na+]` [CL316243], for which the bladder capacity entry is “increases bladder capacity”.

Still in this experiment, the particulars now being: rats, intravenous administration; cited from earlier work.
Take `C[C@H](Cc1ccc2c(c1)OC(C(=O)[O-])(C(=O)[O-])O2)NC[C@H](O)c1cccc(Cl)c1.[Na+].[Na+]` [CL316243]: the bladder pressure entry is “reduces bladder pressure”.

A further experiment addresses T2, human β3 adrenergic receptor (Homo sapiens, UniProt P13945).
T2 construct: stably transfected with the cloned β-adrenergic receptor (β1, β2 or β3); expressed in transfected cells; host or cells: Chinese hamster ovary (CHO) cells, stably transfected
Kind of experiment: Functional assay: cAMP production (LANCE TR-FRET) in CHO cells stably transfected with cloned β3 adrenergic receptor. Format: cell-based. As to conditions: Table 2; cAMP production, CHO cells expressing human β3 AR; read-out: Human β3 functional. On the technique in general: Changes in cAMP serve as a functional read-out for many G protein-coupled receptors.
`O=C(Cc1nnc(-c2ccncc2)[nH]1)Nc1ccc(CC2CC[C@H]([C@H](O)c3cccnc3)N2)cc1` (stereo partly drawn) [Example 25]: the EC50 was in the range of 11 to 100 nM.
In the case of `O=C(Cc1csc(-c2cccnc2)n1)Nc1ccc(CC2CC[C@H]([C@H](O)c3cccnc3)N2)cc1` (stereo partly drawn) [Example 82], the EC50 lay in the range of 1 to 10 nM.
For the molecule `O=C(Cc1nnc(-c2cscn2)[nH]1)Nc1ccc(CC2CC[C@H]([C@H](O)c3cccnc3)N2)cc1` (stereo partly drawn) [Example 27], the EC50 lay in the range of 1 to 10 nM.
For `O=C(Cc1cccc(F)c1F)Nc1ccc(CC2CC[C@H]([C@H](O)c3cccnc3)N2)cc1` (stereo partly drawn) [Example 79], the EC50 lay in the range of 11 to 100 nM.
As to `O=C(Cc1ncccn1)Nc1ccc(CC2CC[C@H]([C@H](O)c3cccnc3)N2)cc1` (stereo partly drawn) [Example 22], the EC50 was 11 to 100 nM.
Same read-out and setting: next, `O=C(Cc1cncnc1O)Nc1ccc(CC2CC[C@H]([C@H](O)c3cccnc3)N2)cc1` (stereo partly drawn) [Example 47]: 11 to 100 nM.
Same read-out and setting: next, `O=C(CC1NC(=O)NC1=O)Nc1ccc(CC2CC[C@H]([C@H](O)c3cccnc3)N2)cc1` (stereo partly drawn) [Example 71]: 101 to 1000 nM; `O=C(Nc1ccc(CC2CC[C@H]([C@H](O)c3cccnc3)N2)cc1)c1ccccc1C1CCCCC1` (stereo partly drawn) [Example 36]: 101 to 1000 nM; `Cc1nn(CC(=O)Nc2ccc(CC3CC[C@H]([C@H](O)c4cccnc4)N3)cc2)c(=O)c2ccccc12` (stereo partly drawn) [Example 9]: 1 to 10 nM.
As to `O=C(Nc1ccc(CC2CC[C@H]([C@H](O)c3cccnc3)N2)cc1)c1ccccc1N1CCCC1` (stereo partly drawn) [Example 37], the EC50 was in the range of 101 to 1000 nM.
On to `Cc1cccc2c(=O)n(CC(=O)Nc3ccc(CC4CC[C@H]([C@H](O)c5cccnc5)N4)cc3)cnc12` (stereo partly drawn) [Example 59], for which the EC50 was 1 to 10 nM.
Take `Cc1cn(CC(=O)Nc2ccc(CC3CC[C@H]([C@H](O)c4cccnc4)N3)cc2)nn1` (stereo partly drawn) [Example 46]: the EC50 was 11 to 100 nM.
As for `Cc1nnc(CC(=O)Nc2ccc(CC3CC[C@H]([C@H](O)c4cccnc4)N3)cc2)[nH]1` (stereo partly drawn) [Example 23], the EC50 fell in the range of 101 to 1000 nM.
The same measure, in the same setting: next, `O=C(Nc1ccc(CC2CC[C@H]([C@H](O)c3cccnc3)N2)cc1)c1c[nH]c2cccnc12` (stereo partly drawn) [Example 54]: 101 to 1000 nM; `O=C(Cn1c(=O)[nH]c2ccccc2c1=O)Nc1ccc(CC2CC[C@H]([C@H](O)c3cccnc3)N2)cc1` (stereo partly drawn) [Example 65]: 1 to 10 nM; `NC(=O)c1ccn(CC(=O)Nc2ccc(CC3CC[C@H]([C@H](O)c4cccnc4)N3)cc2)n1` (stereo partly drawn) [Example 89]: 11 to 100 nM.

The same experiment, now with this note: Table 3; cAMP production, CHO cells expressing human β3 AR; read-out: Human β3 functional.
With `O=C(Nc1ccc(CC2CC[C@H]([C@H](O)c3cccnc3)N2)cc1)C1CCc2sc(C3CC3)nc21` (single isomer, unassigned) [Example 121], the EC50 is 11 to 100 nM.
Take `O=C(Nc1ccc(CC2CC[C@H]([C@H](O)c3cccnc3)N2)cc1)C1CCc2sc(CO)nc21` (single isomer, unassigned) [Example 188]: the EC50 lay within 1 to 10 nM.
For `CC(C(=O)Nc1ccc(CC2CC[C@H]([C@H](O)c3cccnc3)N2)cc1)n1cccn1` (single isomer, unassigned) [Example 98], the EC50 was in the range of 11 to 100 nM.
As to `O=C(Nc1ccc(CC2CC[C@H]([C@H](O)c3cccnc3)N2)cc1)C1CCc2sc(Cl)nc21` (single isomer, unassigned) [Example 187], the EC50 lay in the range of 11 to 100 nM.
On the same count and under the same terms, next, `Cc1nc2c(s1)CCC2C(=O)Nc1ccc(CC2CC[C@H]([C@H](O)c3cccnc3)N2)cc1` (single isomer, unassigned) [Example 115]: 1 to 10 nM; `CC(C(=O)Nc1ccc(CC2CC[C@H]([C@H](O)c3cccnc3)N2)cc1)n1cc(C(N)=O)nn1` (single isomer, unassigned) [Example 200]: 11 to 100 nM; `CC(C(=O)Nc1ccc(CC2CC[C@H]([C@H](O)c3cccnc3)N2)cc1)n1cc(C(N)=O)cn1` (single isomer, unassigned) [Example 219]: 1 to 10 nM.
Take `CCCC(C(=O)Nc1ccc(CC2CC[C@H]([C@H](O)c3cccnc3)N2)cc1)c1cnc(N)s1` (single isomer, unassigned) [Example 109]: the EC50 lay within 1 to 10 nM.
Still for that read-out and setting: next, `CC(C(=O)Nc1ccc(C[C@@H]2CC[C@H]([C@H](O)c3cccnc3)N2)cc1)n1ncccc1=O` (single isomer, unassigned) [Example 163]: 1 to 10 nM; `O=C(Nc1ccc(CC2CC[C@H]([C@H](O)c3cccnc3)N2)cc1)C1CCCc2ccnn21` (single isomer, unassigned) [Example 139]: 101 to 1000 nM.
Same read-out and setting: the result for `Cc1nnc2c(C(C)C(=O)Nc3ccc(CC4CC[C@H]([C@H](O)c5cccnc5)N4)cc3)cccn12` (single isomer, unassigned) [Example 217] reads 11 to 100 nM.
As to `COCCC(C(=O)Nc1ccc(CC2CC[C@H]([C@H](O)c3cccnc3)N2)cc1)n1cccn1` (single isomer, unassigned) [Example 221], the EC50 was in the range of 1 to 10 nM.
As for `CC(C(=O)Nc1ccc(CC2CC[C@H]([C@H](O)c3cccnc3)N2)cc1)c1ccn(C)n1` (single isomer, unassigned) [Example 214], the EC50 was 11 to 100 nM.
For `Cc1cnnn1C(C)C(=O)Nc1ccc(CC2CC[C@H]([C@H](O)c3cccnc3)N2)cc1` (single isomer, unassigned) [Example 212], the EC50 was 101 to 1000 nM.
For `CCCC(C(=O)Nc1ccc(CC2CC[C@H]([C@H](O)c3cccnc3)N2)cc1)c1csc(N)n1` (single isomer, unassigned) [Example 107], the EC50 lay in the range of 11 to 100 nM.
As to `CC(C)c1nc2c(s1)CCC2C(=O)Nc1ccc(CC2CC[C@H]([C@H](O)c3cccnc3)N2)cc1` (single isomer, unassigned) [Example 124], the EC50 was 11 to 100 nM.
Consider `Cc1[nH]nc2c1CCC2C(=O)Nc1ccc(CC2CC[C@H]([C@H](O)c3cccnc3)N2)cc1` (single isomer, unassigned) [Example 155], for which the EC50 is 11 to 100 nM.
On the same count and under the same terms, the result for `O=C(Nc1ccc(CC2CC[C@H]([C@H](O)c3cccnc3)N2)cc1)C1CCc2sc(C3CC3)nc21` (single isomer, unassigned) [Example 122] reads 101 to 1000 nM.
As for `Cc1nc2c(s1)CCC2C(=O)Nc1ccc(CC2CC[C@H]([C@H](O)c3cccnc3)N2)cc1` (single isomer, unassigned) [Example 118], the EC50 fell in the range of 101 to 1000 nM.
Take `CC(F)(C(=O)Nc1ccc(CC2CC[C@H]([C@H](O)c3cccnc3)N2)cc1)c1ccccn1` (single isomer, unassigned) [Example 146]: the EC50 is 11 to 100 nM.
Same read-out and setting: the result for `Cc1nnc(C(C)C(=O)Nc2ccc(CC3CC[C@H]([C@H](O)c4cccnc4)N3)cc2)[nH]1` (single isomer, unassigned) [Example 152] reads 1 to 10 nM; that for `CC(C(=O)Nc1ccc(CC2CC[C@H]([C@H](O)c3cccnc3)N2)cc1)n1cnnn1` (single isomer, unassigned) [Example 182], 11 to 100 nM.

The experiment is the same for the next values; noted with them: Table 4; cAMP production, CHO cells expressing human β3 AR; read-out: Human β3 functional.
Take `O=S(=O)(Cc1ccccn1)Nc1ccc(CC2CC[C@H]([C@H](O)c3cccnc3)N2)cc1` (stereo partly drawn) [Example 226]: the EC50 fell in the range of 101 to 1000 nM.
`O=S(=O)(Nc1ccc(CC2CC[C@H]([C@H](O)c3cccnc3)N2)cc1)c1cccc2cccnc12` (stereo partly drawn) [Example 229]: the EC50 lay within 101 to 1000 nM.

The experiment is the same for the next values; noted with them: Table 6; human β3 functional activity given as ranges; read-out: Human β3 functional.
Take `CC(C(=O)Nc1ccc(C[C@@H]2CC[C@H]([C@H](O)c3cccnc3)N2)cc1)N(C)C(=O)c1ccccc1F` (stereo partly drawn) [Example 248]: the EC50 lay in the range of 11 to 100 nM.
As for `CC(NC(=O)c1nc[nH]n1)C(=O)Nc1ccc(C[C@@H]2CC[C@H]([C@H](O)c3cccnc3)N2)cc1` (stereo partly drawn) [Example 252], the EC50 lay within 1 to 10 nM.

The experiment is the same for the next values; noted with them: cAMP production, CHO cells expressing human β3 AR; read-out: human Beta-3 agonist functional activity.
As to `CCCCCCNC(=O)Nc1ccc(S(=O)(=O)Nc2ccc(C[C@@H]3CC[C@H]([C@H](O)c4cccnc4)N3)cc2)cc1` [Example 239, 4-{[(Hexylamino)carbonyl]amino}-N-[4-({(2S,5R)-5-[(R)-hydroxy(pyridin-3-yl)methyl]pyrrolidin-2-yl}methyl)phenyl]benzenesulfonamide, trifluoroacetic acid salt], the EC50 was below 10 nM.
